Article PMC10823514, “Target Identification of a Class of Pyrazolone Protein Aggregation Inhibitor Therapeutics for Amyotrophic Lateral Sclerosis” (ACS Central Science, 2023)
Like-named read-outs stand apart in the source and are kept apart here.

Key:
[1] = tested on: PC12 SOD1^G93A cells; assay: Neuroprotection against MG-132-induced toxicity in PC12 cells expressing mutant SOD1^G93A (calcein-AM viability); type: cell-based; settings: Rattus norvegicus, PC-12, read-out: EC50 to ameliorate MG132-induced protein aggregation and cellular toxicity
Experimental: With this information in hand, we implemented a phenotypic drug discovery approach to identify a novel therapeutic for treating ALS. The study employed a rat PC12 cell-based assay that expresses SOD1^G93A mutation for screening a chemical library of more than 50,000 compounds to identify promising hits (Figure 1 compounds 3 and 4). The hits are based on attenuating proteasome inhibitor MG-132-induced SOD1^G93A cellular toxicity.
Viability EC50 values were determined according to the previously reported assay procedure.[43] Briefly, PC12 cells were seeded at 15,000 cells/well in 96-well plates, and the medium was changed to remove the doxycycline 4 days prior to compound addition. Compounds were assayed in 12-point dose–response experiments to determine the potency and efficacy. The highest compound concentration tested was 32 μM, which was decreased by half with each subsequent dose. After a 24 h incubation with the analytes, MG-132 (400 nM) was added and the cells were incubated at 37 °C for 24 h. The cells were washed twice with PBS. Calcein-AM was added at a final concentration of 1 μM for 20 min at room temperature, and the fluorescence intensity was read in a POLARstar fluorescence plate reader (BMG). EC50 values were determined by standardizing fluorescent signal to DMSO treated controls. […] The presented data represent the mean average of duplicate experiments.

[2] = biological target: T1, 14-3-3-E (Homo sapiens, UniProt P62258); assay: Fluorescent thermal shift assay (FTSA) with 14-3-3-E; type: binding; settings: for Tm shift (ΔTm): SYPRO orange
T1 construct: His-tag (TEV-cleavable) (cleaved yes); host or cells: E. coli (BL21)
T1 sequence (P62258 1-255): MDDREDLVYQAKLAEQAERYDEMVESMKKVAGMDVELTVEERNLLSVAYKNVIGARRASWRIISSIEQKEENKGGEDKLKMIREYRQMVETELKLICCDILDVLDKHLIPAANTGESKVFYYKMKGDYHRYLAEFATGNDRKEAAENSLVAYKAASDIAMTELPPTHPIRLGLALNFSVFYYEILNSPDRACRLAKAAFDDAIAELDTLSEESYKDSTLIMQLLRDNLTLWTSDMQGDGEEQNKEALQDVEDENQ
Experimental: His-tagged 14-3-3-E, B, and H plasmids were purchased from Addgene (plasmid ID# 31562, 39128, and 38814, respectively). E. coli (BL21) were transformed with extracted plasmids via heat shock and plated on selected media. Individual colonies were selected, grown, and sequenced to confirm gene presence. 1 L cultures were grown to an OD600 of 0.6 at 37 °C and 220 rpm. Protein expression was induced with 1 mM IPTG and expressed for 12 h at 100 rpm and room temperature (approximately 25 °C). Cells were spun down at 4000 rpm for 15 min at 4 °C and resuspended in lysis buffer containing 50 mM Tris (7.4), 150 mM NaCl, 0.08% DDM, 5 mM imidazole, and 5% glycerol (with an EDTA-free complete mini protease inhibitor cocktail). Cells were lysed via sonication, and the lysate was separated from cell debris by centrifugation at 15,000 rpm, 4 °C, for 45 min. The His-tagged protein was purified using QIAGEN Ni-NTA superflow columns, and the His-tag was removed with TEV protease. His-tag-removed proteins were further purified by size exclusion chromatography. His tag removal and size exclusion chromatography purification were done at the Northwestern University Protein Production core. 14-3-3-Q and 14-3-3-G proteins were purchased from Abchem (catalog numbers ab85270 and ab53869, respectively).
All of the FTSA experiments were conducted in HEPES buffer (60 mM HEPES, 150 mM NaCl, pH 7.4). A DMSO balanced 8-point dilution series of the compound in HEPES buffer was prepared in a 96-well assay plate (200, 100, 50, 25, 12.5, 6.25, 3.125, and 0 μM). Then, a 5 μL volume of the dilution series was transferred to a 384-well PCR plate using a multichannel pipet, and the plate was centrifuged at 1000 rpm for 2 min (the plate was covered with an adhesive aluminum seal). The protein sample was premixed at a concentration of 0.04 μg/μL with a 5X concentration of SYPRO orange in HEPES buffer, and a 5 μL aliquot was added to the compound wells. The plate was covered with an optical adhesive seal and was shaken for 2 min, followed by centrifugation at 1000 rpm for 2 min. The thermal scan was performed from 20 to 90 °C with a temperature gradient of 0.5 °C/min. The fluorescence was measured on a Bio-Rad CFX384 real-time PCR instrument.

[3] = PRAPP photolysis under 312 nm UV, followed by HPLC; type: physicochemical; settings: PBS under 312 nm UV irradiation; irradiation at 312 nm, 100 μM in PBS pH 7.4; read-out: photolysis half-life (T1/2)
Experimental: The PRAPP (100 μM) was dissolved in PBS (50 mM, pH 7.4 [1% DMSO v/v]) and irradiated with UV light (λ = 312 nm, 120 V, 60 Hz, 0.2 A [Spectroline model EB-160C], distance ∼4 cm). UV light was removed from the reaction mixtures at varying time points (1, 2, 5, 10, and 20 min) and immediately analyzed by HPLC-UV–vis278 nm (injection volume of 5 μL). PRAPP % remaining was determined based on the area under the curve (AUC) of the UV–vis278 nm chromatogram. A first-order exponential decay curve was generated based on the AUC of the UV–vis chromatogram at 0, 1, 2, 5, 10, and 20 min and used to determine t1/2 of photolysis.

[4] = tested on: PC12 SOD1^G93A cells; settings: neuroprotection against MG-132-induced SOD1^G93A toxicity in PC12 cells; leads of the authors' earlier work; read-out: EC50 (NP = neuroprotection); cited from earlier work

Compound: C#CCN(Cc1cc(=O)[nH][nH]1)Cc1c(F)c(F)c(N=[N+]=[N-])c(F)c1F [PRAPP, 5-(((4-Azido-2,3,5,6-tetrafluorobenzyl)(prop-2-yn-1-yl)amino)methyl)-1,2-dihydro-3H-pyrazol-3-one]
- EC50 [1]: 190 nM
- Tm shift (ΔTm) [2]: 2.5 °C
- half-life at 100 μM [3]: 3.12 min

Compound: O=c1cc(COc2cc(Cl)cc(Cl)c2)[nH][nH]1 [P2]
- Tm shift (ΔTm) [2]: 3.2 °C
- Kd ([2]; fit of ΔTm versus concentration, n = 2, read-out: Kd^app): 2850 nM
- EC50 [4]: 67 nM
